In publication PMC8279484 (Journal of Medicinal Chemistry, 2021):

Key:
ALX/FPR2 receptor = molecular target: T1, ALX/FPR2 receptor (Homo sapiens, UniProt P25090); assay: Intracellular calcium flux in FPR2+/Gαq+ stably transfected HEK-293; format: cell-based; conditions: for Emax: HEK293, % delta calcium signal relative to peak of full agonist (1), 10 pM–100 nM, read-out: Efficacy Emax (%)
T1 construct: host or cells: HEK-293, stably double-transfected FPR2+/Gαq+
T1 sequence (P25090 1-351): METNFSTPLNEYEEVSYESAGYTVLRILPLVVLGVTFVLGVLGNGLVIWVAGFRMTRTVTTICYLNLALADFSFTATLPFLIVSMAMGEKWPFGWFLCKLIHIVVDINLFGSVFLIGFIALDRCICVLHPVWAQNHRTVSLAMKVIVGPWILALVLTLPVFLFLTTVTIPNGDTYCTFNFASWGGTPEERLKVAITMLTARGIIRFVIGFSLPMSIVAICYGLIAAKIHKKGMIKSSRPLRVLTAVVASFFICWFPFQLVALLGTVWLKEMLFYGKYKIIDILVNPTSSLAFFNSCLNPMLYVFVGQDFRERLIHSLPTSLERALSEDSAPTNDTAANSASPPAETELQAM
Method: HEK-293-transfected and wt cell lines were cultured in Dulbecco’s modified Eagle’s medium (DMEM Glutamax, 4 mM L-glu and 4.50 g/L glucose—Gibco, Ireland) supplemented with heat-inactivated (30 min at 56C) 10% (v/v) FBS (Invitrogen, U.K.), 50 U penicillin, and 50 μg of streptomycin (Invitrogen, U.K.). As stably double-transfected FPR2^+/Gαq^+ HEK-293 cells were resistant to Geneticin and Hygromycin, these were used as selective antibiotics (500 and 100 μg/mL, respectively) to maintain the stable double transfection with the ALX/FPR2 receptor and the Gαq subunit coupled to it. Immediately prior to calcium measurement, fluorescently labeled cells were treated with 10^–11/–9/–7M LXA41 or sLXms using an injection system coupled to the fluorescence reader.
To explore the mechanism of action through which the sLXm lead compound exerts the effects seen here, its interaction with the ALX/FPR2 receptor was investigated and agonist-induced intracellular calcium transients were measured using an engineered cell line stably overexpressing the ALX/FPR2 receptor and the Gαq subunit coupled to it (Figure S6). Wild-type HEK cells were used as controls, to verify the specificity of the agonism toward ALX/FPR2, as previously reported.[36] Briefly, prior to cell plating, sterile 96-well plates (black-sided with optically clear glass flat bottoms) were PDL-coated overnight. Subsequently, 2 × 10^5 wild-type cells and overexpressed cells/well were cultured for 18 h in DMEM complete media (containing Ca^2+ and Mg^2+) to facilitate adherence prior to labeling with Fluo-4 dye. After 1 h of incubation at 37 °C with Fluo-4, cells were gently washed twice and placed in 100% Hanks’ balanced salt solution (HBSS; 37 °C) before reading the fluorescence (485/535 nm), using a spectrophotometer conjugated with an injection system (Clariostar BMG LABTECH plate reader), allowing addition to the cells of controls ([…], 2 nM Wp, a synthetic ALX/FPR2 agonist) or experimental treatments [10 pM, 1 nM, and 100 nM LXA41 or (R)-6].
During calcium flux measurement, the kinetic steps involved were the following: the baseline fluorescent signal was measured for 20 s, followed by 100 s immediately after agonist injection. Subsequently, 2% Triton-X-100 was added to lyse the cells (monitoring for 20 s the maximal release of calcium ions in the extracellular environment) and, finally, 25 mM tetraacetic acid (EGTA) was added to chelate calcium ions (monitoring for additional 20 s the minimal detection of calcium ions in the extracellular environment) (Figure S7).
The “coding” of the heat-map indicates the arbitrary criteria to assign points to each single PD component (efficacy = Imax or Emax; potency = IC50 or EC50; slope = HS) to generate a final (aggregate) relative PD score. If a single PD component was greater than the reference level (x > 1), then the single-component relative score was arbitrarily set to +1 (light green) or +2 (dark green). If a single PD component was equal to the reference level (x = 1), then the single-component relative score was arbitrarily set to 0 (gray). If a single PD component was smaller than the reference level (x < 1), then the single-component relative score was arbitrarily set to −1 (light red) or −2 (dark red). If the curve of a single PD component was best fitting to a flat line (x = 0), then the single-component relative score was arbitrarily set to −4 (purple) (Table S1).

THP-1 LUCIA monocytes = assay: In vitro safety study: Safety index (Si), activity versus toxicity; format: cell-based, human; conditions: for IC50: Homo sapiens, THP-1, highest IC50 among the LPS-challenged assays (NF-κB activity, cytokine, LDH release), read-out: Extrinsic Activity hIC50; for Safety Index TC50/IC50: ratio of intrinsic TC50 to extrinsic hIC50
Method: A postanalysis “safety study” was conducted on all QNX-sLXms. For each tested compound, we calculated an in vitro “Safety index” (Si) by relating its “anti-inflammatory half-maximal activity” (the highest dose among the IC50 of the extrinsic LPS-challenged phenotype: NF-κB activity, proinflammatory cytokine, and LDH release) to its intrinsic “toxicity” (expressed as the relative half-maximal LDH-associated cytotoxicity). The generated Si is potentially predictive of a translational “therapeutic” range: the higher the Si, the safer the molecule is. As summarized in Table S4, Si values from all tested compounds fall in a broad range (7–50).

With `CCCCC[C@@H](O)c1c(/C=C/[C@@H](O)[C@@H](O)CCCC(=O)OC)nc(C)n1C` [Compound 5, imidazolo-LXA4] the “Slope HS” value (ALX/FPR2 receptor) was 258, the Emax (ALX/FPR2 receptor) was 99 ± 17% and the “(Aggregate) Rel. PD Score” value (ALX/FPR2 receptor; relative to LXA4 (1)) was 2. For the same compound, the “(Single component) Rel. Score: Rel. Sl.” value (ALX/FPR2 receptor; relative to LXA4 (1)) was 2 (x ≥ 10), the “Efficacy Rel. Eff.” value (ALX/FPR2 receptor; relative to LXA4 (1)) was 0.99 and the “Potency Rel. Pot.” value (ALX/FPR2 receptor; relative to LXA4 (1)) was 1. The “Rel. Slope” value (ALX/FPR2 receptor; relative to LXA4 (1)) was 1.72.
`CCCCC[C@@H](O)c1nc2ccccc2nc1/C=C/[C@H]1OC(C)(C)O[C@H]1CCCC(=O)OC` [(R)-17, Methyl 4-((4S,5R)-5-((E)-2-(3-((R)-1-Hydroxyhexyl)quinoxalin-2-yl)vinyl)-2,2-dimethyl-1,3-dioxolan-4-yl)butanoate] was tested, and the IC50 (THP-1 LUCIA monocytes) was 0.01 nM and the “Safety Index TC50/IC50” value (THP-1 LUCIA monocytes) was 10.
`CCCCCCC[C@H](O)c1nc2ccccc2nc1/C=C/[C@@H](O)[C@@H](O)CCCC(=O)OC` [(S)-8, Methyl (5S,6R,E)-5,6-Dihydroxy-8-(3-((S)-1-hydroxyoctyl)quinoxalin-2-yl)oct-7-enoate] was tested, and the IC50 (THP-1 LUCIA monocytes) was 0.01 nM and the “Safety Index TC50/IC50” value (THP-1 LUCIA monocytes) was 10.
For `CCCCC[C@@H](O)c1nc2ccccc2nc1/C=C/[C@@H](O)[C@@H](O)CCCC(=O)OC` [(R)-6, Methyl (5S,6R,E)-5,6-Dihydroxy-8-(3-((R)-1-hydroxyhexyl)quinoxalin-2-yl)oct-7-enoate], the IC50 (THP-1 LUCIA monocytes) was 0.025 nM, the “Safety Index TC50/IC50” value (THP-1 LUCIA monocytes) was 20 and the “Slope HS” value (ALX/FPR2 receptor) was 220. The “type of agonism at ALX/FPR2” value (ALX/FPR2 receptor) was “equipotent partial agonist”, the “ALX/FPR2 activation lower than that induced by native LXA4” value (ALX/FPR2 receptor; both at 10 pM) was 40% and the “(Single component) Rel. Score: Rel. Eff.” value (ALX/FPR2 receptor; relative to LXA4 (1)) was -2. For the same compound, the “(Single component) Rel. Score: Rel. Sl.” value (ALX/FPR2 receptor; relative to LXA4 (1)) was 1 (1 < x < 10), the “Efficacy Rel. Eff.” value (ALX/FPR2 receptor; relative to LXA4 (1)) was 0.61 and the “Potency Rel. Pot.” value (ALX/FPR2 receptor; relative to LXA4 (1)) was 1. For the same compound, the “Rel. Slope” value (ALX/FPR2 receptor; relative to LXA4 (1)) was 1.46.
In the case of `CCCCC[C@H](O)/C=C/C=C\C=C\C=C\[C@@H](O)[C@@H](O)CCCC(=O)O` [Compound 1, LXA4], the “Slope HS” value (ALX/FPR2 receptor) is reported as 150, the “type of agonism at ALX/FPR2” value (ALX/FPR2 receptor) is reported as “full agonist” and the Emax (ALX/FPR2 receptor) is reported as 100%. The “Efficacy Rel. Eff.” value (ALX/FPR2 receptor; relative to LXA4 (1)) was 1, the “Potency Rel. Pot.” value (ALX/FPR2 receptor; relative to LXA4 (1)) was 1 and the “Rel. Slope” value (ALX/FPR2 receptor; relative to LXA4 (1)) was 1.
